Laboratory results from patent US7589097B2, “Triazol[4,5-d] pyramidine derivatives and their use as purinergic receptor antagonists” (Vernalis Research Limited, priority 2001, dated 2009).

Key:
[1] = biological target: human adenosine A2A receptors (Homo sapiens, UniProt P29274); experiment: Binding affinities at hA2A receptors, displacement of [3H]-CGS 21680
Excerpt: Adenosine Receptor Binding Binding Affinities at hA2A Receptors

[2] = system: cataleptic responses; settings: cited from earlier work
[3] = system: Parkinsonian patients; settings: cited from earlier work

human adenosine A2A receptors, sequence (P29274 whole entry): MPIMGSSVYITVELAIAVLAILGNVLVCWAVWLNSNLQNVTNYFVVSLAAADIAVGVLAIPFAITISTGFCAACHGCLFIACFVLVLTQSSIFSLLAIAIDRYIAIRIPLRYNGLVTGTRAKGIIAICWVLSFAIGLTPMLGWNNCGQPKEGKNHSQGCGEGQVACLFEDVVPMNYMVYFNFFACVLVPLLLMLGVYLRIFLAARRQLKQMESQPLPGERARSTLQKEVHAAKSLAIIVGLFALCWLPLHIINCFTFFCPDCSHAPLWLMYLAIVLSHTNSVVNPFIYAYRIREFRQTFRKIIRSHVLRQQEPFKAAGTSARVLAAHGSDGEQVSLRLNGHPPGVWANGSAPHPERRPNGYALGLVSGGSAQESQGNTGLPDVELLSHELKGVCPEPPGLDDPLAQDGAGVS

Molecule CN(C)Cc1cccc(Cn2nnc3c(-c4ccco4)nc(N)nc32)n1 [Example 233, 3-(6-(N,N-dimethylamino)methyl-2-pyridylmethyl)-7-(2-furyl)-3H-[1,2,3]triazolo[4,5-d]pyrimidine-5-amine] has a Ki [1] of 4 nM and a melting point of 219.7 to 222.3 °C.
Nc1nc(-c2ccco2)c2nnn(Cc3cccc(NCc4ccccn4)c3)c2n1 [Example 255, 3-(3-(2-pyridylmethylamino)benzyl)-7-(2-furyl)-3H-[1,2,3]triazolo[4,5-d]pyrimidine-5-amine] gave a Ki [1] of 4 nM and a melting point of 184.5 to 184.6 °C.
For CCCn1c(=O)c2c(nc(/C=C/c3ccc(OC)c(OC)c3)n2C)n(CCC)c1=O [KF 17837, (E)-8-(3,4-dimethoxystyryl)-1,3-dipropyl-7-methylxanthine], the “anticataleptic effects of a subthreshold dose of L-DOPA plus benserazide” value ([2]; in vivo) is given as “potentiated”, the “catalepsy induced by haloperidol and reserpine” value ([2]; in vivo) is given as “reduced” and the “cataleptic responses induced by intracerebroventricular CGS 21680” value ([2]; oral administration) is given as “significantly ameliorated”.
For Cn1c(=O)c2[nH]cnc2n(C)c1=O [Theophylline, theophylline], the “mean objective disability scores” value ([3]; 15 Parkinsonian patients, up to 12 weeks, 150 mg/day oral) is listed as “significant improvements”, the “patients reporting moderate or marked subjective improvement” value ([3]; of 15 Parkinsonian patients, up to 12 weeks, 150 mg/day oral) is listed as 11 and the serum theophylline levels ([3]; slow release oral preparation 150 mg/day, after one week, Parkinsonian patients) is listed as 4.44 mg/L.
